Experiments:
intraocular pressure [1] = assay: Test for intraocular pressure reduction using Japanese white rabbits; assay type: in vivo; conditions: male Japanese white rabbits; for Intraocular pressure reduction degree: single dose into one eye, at 2 or 4 hours after instillation at which the pressure decreased most, average of 5 to 6 cases; for intraocular pressure lowering action (in words): single instillation, 0.003 to 0.2% (w/v) depending on compound
Protocol: In order to examine the usefulness of the present compound as a preventive or therapeutic agent for glaucoma or ocular hypertension, an intraocular pressure lowering effect when the present compound was administered to Japanese white rabbits (sex: male) was evaluated and studied. As the test compound, Compound A, Compound B, Compound C, Compound E, Compound I and Compound J were used. According to the preparation method for an eye drop described above, each test liquid containing Compound A (0.003% (w/v)), Compound B (0.2% (w/v)), Compound C (0.01% (w/v)), Compound E (0.01% (w/v)), Compound I (0.01% (w/v)) or Compound J (0.01% (w/v)) was prepared. Specifically, to 10 mM phosphate buffer or 1.7% borate buffer, polysorbate 80 and any of the test compounds were added and dissolved or dispersed therein. Then, the pH of the resulting solution or dispersion was adjusted to 5 with sodium hydroxide and/or dilute hydrochloric acid, whereby a test liquid containing each test compound was prepared (only in the case of Compound B, the pH of the test liquid was adjusted to 7). 1) Just before any of the test liquids was administered, one drop of 0.4% oxybuprocaine hydrochloride eye drop was instilled into both eyes of each experimental animal to achieve local anesthesia, and the intraocular pressure was measured using an applanation tonometer. This intraocular pressure was determined as an initial intraocular pressure. 2) Any of the prepared test liquids was administered into one eye of each experimental animal in a single dose. The other eye was left untreated, or a vehicle was instilled into the eye according to the same schedule. 3) After the test liquid was administered, the intraocular pressure of both eyes of each experimental animal was measured at predetermined times (at […] after administration). Incidentally, before measurement, one drop of 0.4% oxybuprocaine hydrochloride eye drop was instilled into both eyes of each experimental animal to achieve local anesthesia. The intraocular pressure reduction degree of each test compound administration group at each measurement time was calculated from the following calculation formula. Intraocular pressure reduction degree (mmHg)=|IOP (Ad−t)−IOP(Ad−0) Equation 2 IOP (Ad-t): Intraocular pressure of the eye into which the test compound was administered at t hours after administration of test compound IOP (Ad-0): Initial intraocular pressure of the eye into which the test compound was administered

intraocular pressure [2] = assay: Test for intraocular pressure reduction using cynomolgus monkeys; assay type: in vivo; conditions: male cynomolgus monkeys; for Maximum intraocular pressure reduction degree: 0.1% (w/v) test liquid instilled into one eye twice a day for 7 days, maximum over 2, 4, 6, 8 h after administration (Compound B: pH 7, 1, 2, 4, 6 h), average of 5 to 6 cases
Protocol: In order to examine the usefulness of the present compound as a preventive or therapeutic agent for glaucoma or ocular hypertension, an intraocular pressure lowering effect when the present compound was administered to cynomolgus monkeys (sex: male) was evaluated and studied. As the test compound, Compound A, Compound B, Compound C, Compound D, Compound E, Compound F, Compound G, Compound H and Compound I were used.
1) Just before a test liquid was administered, one drop of 0.4% oxybuprocaine hydrochloride eye drop was instilled into both eyes of each experimental animal to achieve local anesthesia, and the intraocular pressure was measured using an applanation tonometer. This intraocular pressure was determined as an initial intraocular pressure.
2) A 0.1% (w/v) test liquid (a solution or suspension) was prepared, and the test liquid was instilled into one eye of each experimental animal twice a day for 7 days. The other eye was left untreated, or a vehicle was instilled into the eye according to the same schedule. Incidentally, the test liquid was prepared according to the preparation method for an eye drop described above. Specifically, to 10 mM phosphate buffer or 1.7% borate buffer, polysorbate 80 and any of the test compounds were added and dissolved or dispersed therein. Then, the pH of the resulting solution or dispersion was adjusted to 5 with sodium hydroxide and/or dilute hydrochloric acid, whereby a test liquid containing each test compound was prepared (only in the case of Compound B, the pH of the test liquid was adjusted to 7).
3) After the test liquid was administered, the intraocular pressure of both eyes of each experimental animal was measured at predetermined times (at 2, 4, 6, and 8 hours after administration) (only in the case of Compound B, the intraocular pressure was measured at 1, 2, 4 and 6 hours after administration). Incidentally, before measurement, one drop of 0.4% oxybuprocaine hydrochloride eye drop was instilled into both eyes of each experimental animal to achieve local anesthesia.
The intraocular pressure reduction degree of each test compound administration group at each measurement time was calculated from the following calculation formula. Among the obtained intraocular pressure reduction degrees at respective measurement times, the maximum value was determined as a maximum intraocular pressure reduction degree.
Intraocular pressure reduction degree(mmHg)=|IOP (D−t)−IOP(D−0)| Equation 1
IOP (D-t): Intraocular pressure of the eye into which the test compound was administered at t hours after administration of test compound IOP (D-0): Initial intraocular pressure of the eye into which the test compound was administered

SMILES	Maximum intraocular pressure reduction degree (intraocular pressure [2]) [mmHg]	Intraocular pressure reduction degree (intraocular pressure [1]; 0.01% (w/v) test liquid) [mmHg]	further results
COC(=O)N1CCC(CC#Cc2nc(N)c3ncn([C@@H]4O[C@H](C(=O)NC5CC5)[C@@H](O)[C@H]4O)c3n2)CC1 [Compound A, 4-{3-[6-amino-9-((2R,3R,4S,5S)-5-cyclopropylcarbamoyl-3,4-dihydroxytetrahydrofuran-2-yl)-9H-purin-2-yl]-2-propynyl}-piperidine-1-carboxylic acid methyl ester]	4.9	–	Intraocular pressure reduction degree (intraocular pressure [1]; 0.003% (w/v) test liquid): 3.8 mmHg; intraocular pressure lowering action (in words) (intraocular pressure [1]): significantly higher intraocular pressure lowering action among the present compounds; intraocular pressure lowering action (in words) (intraocular pressure [2]; 0.1% (w/v) instilled twice a day for 7 days): significantly higher intraocular pressure lowering action among the present compounds; lowering of trough intraocular pressure by repeated instillation (in words) (intraocular pressure [2]; 0.1% (w/v) repeated instillation (BID)): exhibited a high lowering action; trough intraocular pressure value on day 7, lower than that in the vehicle administration group (intraocular pressure [2]; 0.1% (w/v) repeated instillation (BID) for 7 days, difference from vehicle group): 1.0 mmHg
CCNC(=O)[C@H]1O[C@@H](n2cnc3c(N)nc(C#CCC4CCC(C(=O)OC)CC4)nc32)[C@H](O)[C@@H]1O (stereo partly drawn) [Compound B, 4-{3-[6-amino-9-((2R,3R,4S,5S)-5-ethylcarbamoyl-3,4-dihydroxytetrahydrofuran-2-yl)-9H-purin-2-yl]-2-propynyl}-cyclohexane-1-carboxylic acid methyl ester]	2.2	–	Intraocular pressure reduction degree (intraocular pressure [1]; 0.2% (w/v) test liquid (pH 7)): 2.1 mmHg
CCNC(=O)[C@H]1O[C@@H](n2cnc3c(N)nc(C#CCC4CCN(C(=O)OC)CC4)nc32)[C@H](O)[C@@H]1O [Compound C, 4-{3-[6-amino-9-((2R,3R,4S,5S)-5-ethylcarbamoyl-3,4-dihydroxytetrahydrofuran-2-yl)-9H-purin-2-yl]-2-propynyl}-piperidine-1-carboxylic acid methyl ester]	2.7	2.8	–
CCNC(=O)[C@H]1O[C@@H](n2cnc3c(N)nc(C#CCC4CCN(C(=O)OCC)CC4)nc32)[C@H](O)[C@@H]1O [Compound D, 4-{3-[6-amino-9-((2R,3R,4S,5S)-5-ethylcarbamoyl-3,4-dihydroxytetrahydrofuran-2-yl)-9H-purin-2-yl]-2-propynyl}-piperidine-1-carboxylic acid ethyl ester]	2.9	–	–
CCNC(=O)[C@H]1O[C@@H](n2cnc3c(N)nc(C#CCC4CCN(C(=O)OC(C)C)CC4)nc32)[C@H](O)[C@@H]1O [Compound E, 4-{3-[6-amino-9-((2R,3R,4S,5S)-5-ethylcarbamoyl-3,4-dihydroxytetrahydrofuran-2-yl)-9H-purin-2-yl]-2-propynyl}-piperidine-1-carboxylic acid isopropyl ester]	2.9	2.6	–
Nc1nc(C#CCC2CCN(C(=O)Oc3ccc(F)cc3)CC2)nc2c1ncn2[C@@H]1O[C@H](C(=O)NC2CC2)[C@@H](O)[C@H]1O [Compound F, 4-{3-[6-amino-9-((2R,3R,4S,5S)-5-cyclopropylcarbamoyl-3,4-dihydroxytetrahydrofuran-2-yl)-9H-purin-2-yl]-2-propynyl}-piperidine-1-carboxylic acid 4-fluorophenyl ester]	2.7	–	–
COc1ccccc1OC(=O)N1CCC(CC#Cc2nc(N)c3ncn([C@@H]4O[C@H](C(=O)NC5CC5)[C@@H](O)[C@H]4O)c3n2)CC1 [Compound G, 4-{3-[6-amino-9-((2R,3R,4S,5S)-5-cyclopropylcarbamoyl-3,4-dihydroxytetrahydrofuran-2-yl)-9H-purin-2-yl]-2-propynyl}-piperidine-1-carboxylic acid 2-methoxyphenyl ester]	2.7	–	–
COc1ccc(OC(=O)N2CCC(CC#Cc3nc(N)c4ncn([C@@H]5O[C@H](C(=O)NC6CC6)[C@@H](O)[C@H]5O)c4n3)CC2)cc1 [Compound H, 4-{3-[6-amino-9-((2R,3R,4S,5S)-5-cyclopropylcarbamoyl-3,4-dihydroxytetrahydrofuran-2-yl)-9H-purin-2-yl]-2-propynyl}-piperidine-1-carboxylic acid 4-methoxyphenyl ester]	2.3	–	–
Nc1nc(C#CCC2CCN(C(=O)Oc3ccc(F)c(F)c3)CC2)nc2c1ncn2[C@@H]1O[C@H](C(=O)NC2CC2)[C@@H](O)[C@H]1O [Compound I, 4-{3-[6-amino-9-((2R,3R,4S,5S)-5-cyclopropylcarbamoyl-3,4-dihydroxytetrahydrofuran-2-yl)-9H-purin-2-yl]-2-propynyl}-piperidine-1-carboxylic acid 3,4-difluorophenyl ester]	1.8	1.7	–
Nc1nc(C#CCC2CCN(C(=O)OC3CCC3)CC2)nc2c1ncn2[C@@H]1O[C@H](C(=O)NC2CC2)[C@@H](O)[C@H]1O [Compound J, 4-{3-[6-amino-9-((2R,3R,4S,5S)-5-cyclopropylcarbamoyl-3,4-dihydroxytetrahydrofuran-2-yl)-9H-purin-2-yl]-2-propynyl}-piperidine-1-carboxylic acid cyclobutyl ester]	–	4.1	intraocular pressure lowering action (in words) (intraocular pressure [1]): significantly higher intraocular pressure lowering action among the present compounds
